Data from patent US6921775B2, “Methods for modulating brain damage” (Children's Medical Center Corporation, priority 2001, dated 2005).

Columns and labels:
[1] = tested on: calcium permeable AMPA/kainate receptors; assay: AMPA induced cobalt uptake in coronal brain slices; assay type: cell-based; conditions: P7 rat slices, 100 μM AMPA, 100 μM MK-801, 20 minute
Excerpt: P6/7 Long Evans rat pups were sacrificed by decapitation and the brains were removed quickly and placed in ice cold rat ACSF. 300 μm coronal slices were cut on a live-slice dedicated vibratome while continually maintained in oxygen bubbled, cold ACSF. Slices were transferred to an oxygen chamber, where they were maintained at room temperature.
300 μm thick vibratome cut coronal slices were collected from the anterior commissure to the anterior aspect of the thalamus and placed in oxygen-rich ice cold rat ACSF. Stabilized slices were transferred to a room temperature oxygen chamber and maintained in ACSF. Stable slices were transferred to modified ACSF containing low calcium and 5 mM CoCL2 and stimulated with 100 μM AMPA in the presence of 100 μM MK-801 and with or without topiramate in varying concentrations. Slices were incubated at room temperature for 20 minutes then rinsed in ACSF, followed by 3 rinses in ASCF containing 2 mM EDTA to chelate and remove any unbound cobalt. Cobalt was then precipitated with ammonium […]. Sections were fixed in 4% paraformaldehyde for 10 minutes, rinsed and stored in PBS. Silver enhancement of precipitate was carried out for improved visualization. Slices were transferred to enhancement solution (10% sucrose, 15.5 mM hydroquinone, 42 mM citric acid) and warmed to 50° C. Slices were moved to similar solution containing 0.1% silver nitrate, then incubated at 50° C. for 45 minutes, with solution changes every 15 minutes. Sections were rinsed in PBS then cryoprotected in 30% sucrose solution and 40 μm sections, cut using a freezing microtome, were mounted on slides and analyzed.
Cortical slices were assessed for the presence of AMPA induced cobalt uptake in coronal slices from P7 rats. […] Immature OLs in pericallosal white matter at P7 show consistent cobalt uptake following 20 minute incubation with 100 μM AMPA, 100 μM MK-801 in low Ca^2+, cobalt containing rat ACSF (FIG. 6B). Cobalt-containing white matter cells were identified as OL precursors by immunolabeling with O4 surface antigen (FIG. 6C and FIG. 6D). […]

[2] = tested on: oligodendrocyte precursor cells; assay: 45Ca2+ uptake in oligodendrocyte precursor cells; assay type: cell-based, rat; conditions: NBQX 100 μM, topiramate 30 μM, uptake after 10 minutes; for OGD-induced Ca2+ accumulation (45Ca2+ uptake): OGD for 2 hr; for kainate-evoked Ca2+ entry (45Ca2+ uptake): kainate 300 μM
Description: Primary oligodendrocyte precursor cells were isolated from mixed glial cultures of the forebrains of newborn Sprague-Dawley rats using a selective detachment procedure as described in detail elsewhere (McCarthy and de Vellis, 1980; Back et al., 1998), and further purified by differential adhesion (Back et al., 1998). Precursor cells were maintained in a chemically-defined medium (CDM) supplemented with recombinant human platelet derived growth factor-AA (PDGF, 10 ng/ml) and basic fibroblast growth factor (bFGF, 10 ng/ml). The CDM was Dulbecco Modified Eagle's Medium (DMEM) containing D-glucose (25 mM), L-glutamine (4 mM), sodium pyruvate (1 mM), human apo-transferrin (50 μg/ml), bovine pancreatic insulin (5 μg/ml), sodium selenium (30 nM), hydrocortisone (10 nM), D-biotin (10 nM), and bovine serum albumin (BSA, 1 mg/ml). All chemicals were from Sigma. Precursor cells were maintained in the presence of growth factors (PDGF+bFGF) by refeeding with fresh medium every 48 hr for 7 days, to promote cell proliferation and prevent differentiation (Bogler et al., 1990). Experiments were performed with cultures maintained in CDM without the supplemental growth factors. These cultures were routinely characterized by immunochemical detection of cell-specific markers as described before (Back et al., 1998). Cultures at the beginning of experiments usually consisted of approximately 90% A2B5^+ oligodendrocyte precursors and less than 5% glial fibrillary acidic protein (GFAP)-positive astrocytes. Cells were plated on poly-DL-ornithine-coated 24-well plates for cell viability assays and on coated glass coverslips for immunocytochemistry, proliferation studies, and lineage analysis. To assay Ca^2+ influx, cultures were incubated with ^45CaCl2 (8 μCi/ml) at room temperature for 10 min, then washed with Hank's balanced salts-solution (HBSS) and lysed with 1% Triton-X 100 in HBSS. Radioactivity in the whole lysate was counted by liquid scintillation. To gain further insight into the mechanisms of the protective effect of topiramate and NBQX, kainate- or OGD-evoked calcium accumulation in oligodendrocyte precursor cells was investigated. Cultures were either not treated or given NBQX (100 μM) or topiramate (30 μM), together with ^45CaCl2 (8 μCi/ml), before adding kainate (300 μM) or after exposure to OGD for 2 hr. ^45Ca^2+ uptake was measured after 10 minutes.

[3] = 100 μM NBQX or 50 μM topiramate

SMILES | cobalt uptake in immature OLs of pericallosal white matter [1, 3] | OGD-induced Ca2+ accumulation (45Ca2+ uptake) [2] | kainate-evoked Ca2+ entry (45Ca2+ uptake) [2] | cobalt uptake in immature OLs of pericallosal white matter ([1]; 10 μM topiramate)
NS(=O)(=O)c1cccc2c1c([N+](=O)[O-])cc1nc(O)c(O)nc12 [NBQX, 2,3-Dioxo-6-nitro-1,2,3,4-tetrahydrobenzo[f]quinoxaline-7-sulphonamide] | effectively blocked | fully prevented | completely blocked | –
CC1(C)O[C@@H]2[C@@H](CO[C@@]3(COS(N)(=O)=O)OC(C)(C)O[C@@H]23)O1 [topiramate] | effectively blocked | fully prevented | partially prevented | partial effect
